# Experimental data as given in patent US11150255B2, “Additive channels” (Emulate Inc., priority 2016, dated 2021).
# Entries after “also recorded” stand apart in the source; their conditions may differ. Positions of bridges follow the written chain, without caps; N, C: chain ends. Non-standard residues stand in square brackets, D forms with d. Residues, ends and D or L forms follow the SMILES beside them. hArg = N=C(N)NCCCC[C@H](N)C(=O)O; Mpa = O=C(O)CCS
# Legend:
# FcγRIIa = experiment: Vessel-On-Chip thrombosis, all endpoints (platelet coverage, fibrin deposition, TAT); assay type: cell-based, human; conditions: for hu5C8-mediated thrombosis on-chip (platelet coverage, fibrin deposition, TAT): with sCD40L 10 ng/ml, IV.3 1 μg/ml pre-incubation or IgG2σ variant in place of hu5C8
# [1] = tested on: platelets in human whole blood over HUVEC endothelium; experiment: Vessel-On-Chip blood perfusion, platelet coverage by fluorescence imaging; assay type: cell-based; conditions: for platelet aggregation / platelet coverage: TNF-α 50 ng/ml 6 hours endothelial pre-treatment or sCollagen 10 μg/ml in blood, vs blood alone; for platelet aggregate formation / platelet coverage: hu5C8 240 μg/ml, sCD40L 10 ng/ml, untreated endothelium, 60 μl/minute, vs untreated blood
# Protocol: (§1) Briefly, human blood was drawn in citrate buffer and used within 4 hours. Platelets were stained using fluorescently labeled non-blocking antibodies for the platelet surface marker CD41 and low dosages of fluorescent fibrinogen were added in order to visualize fibrin deposition. Blood was re-calcified in order to re-establish the full coagulation potential, then introduced in the biomimetic vessel-on-chip from the main inlet (embodiments of inlets shown in FIG. 18A-1, FIG. 18A-2 and FIG. 19C). The outlet of the chip was connected to a pulling syringe pump with a system of tubing and connectors made of medical grade silicon that excludes any metal components or potential causes of platelet activation (FIG. 5A).
# (§2) After 14 minutes of perfusion, the flow was interrupted and the chips were immediately imaged via fluorescence microscopy (FIG. 18C and FIG. 19D). In healthy conditions, endothelial cells will provide an antithrombotic surface where blood can flow smoothly, and indeed we detected minimal platelet adhesion or fibrin deposition in our vessel-on-chip after blood perfusion in control conditions, FIG. 18C, Blood.
# Platelets were labeled with human CD41-PE antibody (10 μL/ml, Invitrogen) directly added to the blood and incubated at room temperature for 5 minutes.
# A medical grade plastic reservoir was mounted on the chip, then 800 μl of the blood sample was pipetted into the reservoir. The chip was perfused with the blood by withdrawing it at a rate of 60 μl/minute using a syringe pump. The citrated blood was re-calcified 2 minutes after the beginning of each experiment by adding 100 μl/ml of a solution containing 100 mM calcium chloride and 75 mM magnesium chloride to the blood to permit calcium- and magnesium-dependent platelet function and coagulation.
# (§3) Chips perfused with blood samples were immediately imaged via fluorescence microscopy (Olympus IX83, 10× objective UPLFLN10×2, Orca-Flash4.0 CMOS Camera). Each chamber was inspected along its entire length and S images (about 0.25 cm) were captured from the central area of the chamber. Image processing and quantification was performed with an automatic macro compiled in ImageJ and numerical values corresponding to platelet coverage or fibrin florescence were collected and statistically analyzed in Graphpad Prism V7.
# (§4) A percentage of signal coverage (or Platelet coverage) was computed from the binary image as the ratio of bright pixels to the total number of pixels in the image. Image processing and quantification was performed with an automatic macro compiled in ImageJ in order to ensure unbiased signal measurements. Numerical values corresponding to platelet coverage or fibrin fluorescence (signal intensity) were collected and statistically analyzed in Graphpad Prism V7.
# [2] = tested on: fibrin deposition on the endothelium; experiment: Vessel-On-Chip blood perfusion, fibrin deposition by fluorescent fibrinogen imaging; assay type: cell-based, human; conditions: for fibrin deposition / fibrin signal intensity: TNF-α 50 ng/ml 6 hours endothelial pre-treatment or sCollagen 10 μg/ml in blood, vs blood alone; for fibrin deposition / fibrin clot formation: hu5C8 240 μg/ml, sCD40L 10 ng/ml, untreated endothelium, 60 μl/minute, vs untreated blood
# Protocol: as §1, §2
# When analyzing the formation of fibrin, […] of fluorescently labeled fibrinogen (Alexa 488, Invitrogen) was also added to the blood. While fluorescent fibrinogen was barely detected as a diffused fluorescence, fibrin deposition on inflamed cells and sparse clots was easily distinguished since fibrin formed filamentous structures produce a signal intensity that is clearly observed above a background threshold.
# as §3, §4
# [3] = tested on: thrombin anti-thrombin complex (TAT); experiment: Thrombin anti-thrombin (TAT) ELISA in chip effluent plasma; assay type: cell-based, human; conditions: TNF-α endothelial pre-treatment or sCollagen in blood; outflow samples
# Protocol: Thrombin converts fibrinogen into fibrin during clot formation, and anti-thrombin plays a role in maintaining homeostasis by inhibiting the effect of thrombin. Formation of TAT in the microdevice confirms that local and intrinsic generation of thrombin, a potent platelet agonist, occurs in the model and that counter regulatory mechanisms for coagulation are retained. Thus, blood sampled from the Vessel-On-Chip was analyzed for thrombin anti-thrombin complex (TAT), an accepted clinical biomarker for procoagulation^48,49. […] An enzyme-linked immunosorbant assay (ELISA) was used to quantify the thrombin anti-thrombin complex (TAT).
# Thrombin Anti-Thrombin (TAT) levels were analyzed in plasma from blood flowing out of the chip device by removing a sample from the outflow port. Thus TAT levels were evaluated in sample effluents collected from the outflow port of the chip using the Human TAT ELISA Kit (Siemens Healthineers) according to the user manual.
# Blood sampled from the Vessel-On-Chip outflow port was analyzed for thrombin anti-thrombin complex (TAT), a factor released upon activation of the coagulation cascade and one of the biomarkers associated with thrombotic events occurring in patients affected with deep vein thrombosis (DVT) or SLE^45,46. […] An enzyme-linked immunosorbant assay (ELISA) was used to quantify the thrombin anti-thrombin complex (TAT).
# patients = conditions: hu5C8: lupus nephritis study; IDEC-131: Crohn's disease trial; cited from earlier work
# [4] = Eptifibatide 2 ug/ml, endothelium inflamed with TNF-α, n=4
compound,measurement,setting,value
N=C(N)NCCCC[C@@H]1NC(=O)CCSSC[C@@H](C(N)=O)NC(=O)[C@@H]2CCCN2C(=O)[C@H](Cc2c[nH]c3ccccc23)NC(=O)[C@H](CC(=O)O)NC(=O)CNC1=O [Eptifibatide] ([Mpa][hArg]GDWPC-NH2; disulfide 1-7),thrombotic events recapitulated in the system,FcγRIIa; clinically relevant dosages of Eptifibatide,inhibited
same,inhibitory effect on platelet aggregation and fibrin clot formation,"[1]; Eptifibatide 2 ug/ml, blood treated with sCollagen, n=4",comparatively modest
same,platelet aggregation,[1]; [4],significantly inhibited
same,platelet adhesion (image analysis of multiple experiments),"[1]; Eptifibatide 2 ug/ml, n=4",completely inhibited
same,"platelet coverage in stimulated, pro-thrombotic conditions","[1]; TNF-α or sCollagen, with Eptifibatide, FIG. 18E-1, n=4 donors",suppressed
same,fibrin clot formation,[2]; [4],significantly inhibited
same,fibrin signal (image analysis of multiple experiments),"[2]; Eptifibatide 2 ug/ml, samples treated with TNF-α, n=4",a significant amount of fibrin signal was still detectable
same,"fibrin deposition in stimulated, pro-thrombotic conditions","[2]; TNF-α or sCollagen, with Eptifibatide, FIG. 18E-2, n=4 donors",suppressed
TNF-α,platelet aggregation / platelet coverage,[1],increased; also recorded: high number of larger aggregates
same,levels of TAT,[3],significantly increased; also recorded: elevated levels
same,fibrin deposition / fibrin signal intensity,[2],increased
hu5C8 (IgG2σ): IgG2σ variant of hu5C8 with an engineered Fc region that eliminates affinity for the FcγRIIa,"hu5C8-mediated thrombosis on-chip (platelet coverage, fibrin deposition, TAT)",FcγRIIa,did not show signs of thrombosis
same,"hu5C8-mediated thrombosis on-chip (platelet coverage, fibrin deposition, TAT)",FcγRIIa; listed as IgG2σ,suppressed
same,"hu5C8-mediated thrombosis on-chip (platelet coverage, fibrin deposition, TAT)",FcγRIIa; listed as hu5C8-IgG2σ,not detected
"hu5C8: humanized monoclonal IgG1 antibody against CD40L, alternatively named anti-sCD40L or anti-CD154",platelet aggregate formation / platelet coverage,[1],no significant treatment-related effects
same,incidence of thromboembolic events in clinical study,patients,2/18
same,fibrin deposition / fibrin clot formation,[2],no significant treatment-related effects
sCD40L: Recombinant human sCD40 Ligand,platelet aggregate formation / platelet coverage,[1],no significant treatment-related effects; also recorded: not statistically significant
same,"increase in platelet coverage in some donors, fold over untreated control",[1]; sCD40L alone,about 2 fold
same,fibrin deposition / fibrin clot formation,[2],no significant treatment-related effects
"sCollagen: soluble collagen (Soluble Calf Skin, Type I), a standard platelet activator",platelet aggregation / platelet coverage,[1],increased; also recorded: high number of larger aggregates
same,levels of TAT,[3],minimally increased; also recorded: elevated levels
same,fibrin deposition / fibrin signal intensity,[2],increased
